# Measurements published in US20240041878A1, “APELIN RECEPTOR MODULATORS FOR TREATMENT OF A DISORDER OR DISEASE ASSOCIATED WITH BBB PERMEABILITY” (BioAge Labs, Inc., priority 2022, published 2024).
# Legend:
# 26 month-old mice [1] = assay: Mouse Cytokine Array Panel on plasma of aged mice; assay type: in vivo; conditions: 50 mg/kg BID P.O. one week, 10 of 40 cytokines detectable
# Method: The mice were handled in accordance with principles and guidelines established by the “Guide for the Care and Use of Laboratory Animals” and overseen by the BioAge Lab's institutional animal care and use committee (IACUC). Mice were housed conventionally in a constant temperature (20-22° C.) and humidity (40%-60%) animal room with a 12/12 h light/dark cycle and free access to food and water. 26 month-old mice were randomized based on the body weight and body condition scores to two groups (vehicle or BGE-105, n=8). 4 month-old female mice were used as an additional control group (vehicle, n=4). Mice were administered P.O. vehicle or BGE-105 at 50 mg/kg (BID) for one week. After completion of dosing, blood samples were collected via retro-orbital bleeding under isoflurane anesthesia into K2-EDTA tubes to prevent coagulation. Mice were euthanized via transcardiac perfusion under isoflurane anesthesia. Whole blood was centrifuged to isolate plasma, which was stored at −80° C. until further experimentation.
# For qualitative analysis of 40 different cytokines, plasma samples were assessed with the Mouse Cytokine Array Panel (R&D Systems) according to manufacturer's instructions. […] The optical of each dot on the array serves as a relative measure of cytokine abundance (e.g., a more intensely-stained dot denotes more cytokine present in the sample) and was analyzed with ImageJ software (NIH).
# SOD1^G93A mice = assay: ICV administration in SOD1^G93A mouse model of ALS; assay type: in vivo; conditions: ICV via Alzet minipumps, 1 month
# Method: The study accesses the effects of BGE-105 in a mouse model of ALS. The study establishes pharmacokinetic/pharmacodynamic features of intracerebroventricular (ICV) administration of BGE-105 in wildtype C57BL/6J mice. Multiple doses across multiple timepoints are tested to determine drug characteristics within the central nervous system (CNS). BGE-105 is administered to SOD1^G93A mice using Alzet minipumps connected to ICV cannulas.
# Astrocyte reactivity, driven by IL-la/TNFα/C1q-mediated neurotoxicity, contributes to spinal cord motor neuron death and motor dysfunction in mouse models of ALS. […] This study first validates intraventricular administration of BGE-105 into wildtype mice to establish CNS-specific drug properties and guide optimal dose selection. Next, the efficacy of CNS delivery of BGE-105 to minimize motor neuron death, improve motor function, and extend lifespan in the SOD1^G93A mouse model of ALS is tested. For experiments in vivo, BGE-105 are administered to SOD1^G93A mice using Alzet minipumps. Alzet minipumps are implanted at 4 months of age, followed by 1 month of continuous administration of BGE-105.
# Analyses of motoric, behavioral, and survival endpoints are measured. Brain, spinal cord, and skeletal muscle are dissected post mortem for histochemical and transcriptomic analyses to determine target engagement and mechanisms of action.
# Alzet minipumps connected to intraventricular cannulas are utilized for continuous CNS delivery of BGE-105, akin to previous studies on APJ agonism in the CNS (Zhu et al., 2020. Apelin-36 mediates neuroprotective effects by regulating oxidative stress, autophagy and apoptosis in MPTP-induced Parkinson's disease model mice, Brain Research, Volume 1726, 2020, 146493, ISSN 0006-8993). 4-month-old SOD1^G93A mice (C57BL/6J background; strain #004435, Jackson Laboratory) of both sexes (n=12/group; 6 male, 6 female) are randomized into vehicle or two separate treatment groups before undergoing baseline motor behavior assessments including the open field, grid hang, beam walk, and accelerating rotarod. […]
# Mouse astrocyte cells = assay: CXCL1 and IL-6 ELISA of astrocyte culture media after RAC treatment; assay type: cell-based; conditions: RAC+BGE-105 250 nM
# 26 month-old mice [2] = assay: Total BDNF ELISA in hippocampus of aged mice; assay type: in vivo, mouse; conditions: 50 mg/kg BID P.O. one week, p<0.05
# Method: The mice were handled in accordance with principles and guidelines established by the “Guide for the Care and Use of Laboratory Animals” and overseen by the BioAge Lab's institutional animal care and use committee (IACUC). Mice were housed conventionally in a constant temperature (20-22° C.) and humidity (40%-60%) animal room with a 12/12 h light/dark cycle and free access to food and water. 26 month-old mice were randomized based on the body weight and body condition scores to two groups (vehicle or BGE-105, n=8). Mice were administered P.O. vehicle or BGE-105 at 50 mg/kg (BID) for one week. […]
# Hippocampal samples were homogenized with 30 volumes of radioimmunoprecipitation immunoassay (RIPA) buffer with Halt Protease and Phosphatase Inhibitor (Thermofisher) before being spun at 16,000×g for 20 minutes at 4° C. and supernatant removed to new, labeled tube. Total protein concentrations for each sample were analyzed with Pierce BCA Protein Assay Kit (Thermofisher) according to manufacturer's instructions, then all samples were diluted to 0.2 μg/μL with RIPA buffer.
# For quantitative analysis of hippocampal BDNF expression, tissue samples were assessed with Quantikine® enzyme-linked immunosorbent assay (ELISA) for Total BDNF (R&D Systems) according to manufacturer's instructions. […]
# 26 month-old mice [3] = assay: Quantikine ELISAs for mouse CXCL1 and CXCL13 in plasma of aged mice; assay type: in vivo; conditions: 50 mg/kg BID P.O. one week, p<0.05
# Method: The mice were handled in accordance with principles and guidelines established by the “Guide for the Care and Use of Laboratory Animals” and overseen by the BioAge Lab's institutional animal care and use committee (IACUC). Mice were housed conventionally in a constant temperature (20-22° C.) and humidity (40%-60%) animal room with a 12/12 h light/dark cycle and free access to food and water. 26 month-old mice were randomized based on the body weight and body condition scores to two groups (vehicle or BGE-105, n=8). 4 month-old female mice were used as an additional control group (vehicle, n=4). Mice were administered P.O. vehicle or BGE-105 at 50 mg/kg (BID) for one week. After completion of dosing, blood samples were collected via retro-orbital bleeding under isoflurane anesthesia into K2-EDTA tubes to prevent coagulation. Mice were euthanized via transcardiac perfusion under isoflurane anesthesia. […]
# For quantitative analysis, plasma samples were assessed with Quantikine® enzyme-linked immunosorbent assays (ELISAs) for mouse CXCL1 and CXCL13 (R&D Systems) according to manufacturer's instructions. Optical density of the completed ELISA was imaged using a SpectraMax iD5 (Molecular Devices), sample concentrations were calculated compared to a standard curve, and relative change with age+/−BGE-105 treatment was calculated with young mouse plasma serving as the normalization.
smiles,measurement,setting,value
"COc1cccc(OC)c1-n1c(NS(=O)(=O)[C@@H](C)[C@H](C)c2ncc(C)cn2)nnc1-c1cncc(C)c1 [BGE-105, (2S,3R)—N-(4-(2,6-dimethoxyphenyl)-5-(5-methyl-3-pyridinyl)-4H-1,2,4-triazol-3-yl)-3-(5-methyl-2-pyrimidinyl)-2-butanesulfonamide]",average decrease of optical density of the detectable cytokines in plasma cytokine array,26 month-old mice [1],28%
same,lifespan,SOD1^G93A mice,extends lifespan
same,motor function,SOD1^G93A mice,improves motor function
same,motor neuron death,SOD1^G93A mice,minimizes motor neuron death
same,CXCL1 concentration/release (FIG. 12),Mouse astrocyte cells,20000 to 40000 pg/mL
same,IL-6 concentration/release (FIG. 12),Mouse astrocyte cells,about 10000 pg/ml
same,increase of concentration of total BDNF in the hippocampus,26 month-old mice [2],20%
same,reduction of CXCL1 concentrations in plasma,26 month-old mice [3],35%
same,reduction of CXCL13 concentrations in plasma,26 month-old mice [3],26%
